In one experiment the test system is MDA-MB-231. Nature of the experiment: drug sensitivity score (DSS), CellTiter-Glo (DSS (AUC-based score)); higher = stronger drug effect (viability inhibition or cytotoxicity); extreme values may be limits of the assay. The conditions noted are these: incubation time: 72 h. An outline of the steps: (§1)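 Using 20 µl of cell suspension per well, breast cancer cell lines were seeded into 384-well plates pre-loaded with compound at 5 concentrations in 10-fold steps across a compound-specific 10,000-fold range. Incubation lasted 72 h, after which CellTox Green fluorescence at 485/520 nm and then CellTiter-Glo luminescence, following 10 min at room temperature, were recorded. Each plate was normalised to 0.1 % DMSO and a positive kill control before the drug sensitivity score was derived from the area under the fitted dose-response curve.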
(In general: ATP-based viability assays read luminescence as a measure of living cells.)

Experiment [1] relates to BT-474. The experiment is described as above. The conditions noted are these: incubation time: 72 h. An outline of the steps:
as §1

Experiment [2] deals with DU-4475. Described as above. The conditions noted are these: incubation time: 72 h. An outline of the steps: as §1
Experiment [3] relates to MDA-MB-436. Described as above. The conditions noted are these: incubation time: 72 h. In a few lines: as §1
Experiment [4] concerns BT-549. The experiment is described as above. Particulars: incubation time: 72 h. An outline of the steps: as §1
In another experiment the test system is MDA-MB-468. The experiment is described as above. The conditions noted are these: incubation time: 72 h. In a few lines:
as §1

For experiment [5], the system named is CAL-85-1. The experiment is described as above. Particulars: incubation time: 72 h. In a few lines: as §1
A further experiment relates to MCF-10A. The description is as above. The conditions noted are these: incubation time: 72 h. In a few lines: as §1
For experiment [6], the system named is HCC1937. The description is as above. Particulars: incubation time: 72 h. An outline of the steps:
as §1

The next experiment deals with CAL-148. The description is as above. Particulars: incubation time: 72 h. In a few lines: as §1
In a further experiment the test system is CAL-120. Described as above. Particulars: incubation time: 72 h. An outline of the steps:
as §1

Experiment [7] relates to HCC1599. The description is as above. The conditions noted are these: incubation time: 72 h. An outline of the steps:
as §1

Experiment [8] has as its system Hs578T. The description is as above. Particulars: incubation time: 72 h. In a few lines:
as §1

For experiment [9], the system named is HCC1143. The description is as above. The conditions noted are these: incubation time: 72 h. An outline of the steps:
as §1

In experiment [10] the test system is MFM-223. The experiment is described as above. Particulars: incubation time: 72 h. In a few lines: as §1
Experiment [11] relates to BT-474. Nature of the experiment: normalised viability (% of control), CellTiter-Blue; higher = more viable cells (100 = DMSO, 0 = benzethonium chloride kill control). The conditions noted are these: 1 nM; incubation time: 72 h. As to the method: (§2)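 DSRT, CellTiter-Blue viability, 72 h incubation. Signal is normalised to DMSO and benzethonium chloride controls. Value is the normalised response at dose 1.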

The subject of experiment [12] is DU-4475. The experiment is described as above. The conditions noted are these: 1 nM; incubation time: 72 h. As to the method:
as §2

Experiment [13] deals with MDA-MB-436. Described as above. The conditions noted are these: 1 nM; incubation time: 72 h. How it is done:
as §2

In a further experiment the test system is CAL-51. The experiment is described as above. Particulars: 1 nM; incubation time: 72 h. How it is done: as §2
Experiment [14] relates to BT-549. The experiment is described as above. The conditions noted are these: 1 nM; incubation time: 72 h. How it is done:
as §2

The subject of experiment [15] is CAL-85-1. Described as above. Particulars: 1 nM; incubation time: 72 h. As to the method:
as §2

The subject of experiment [16] is HCC1937. The description is as above. The conditions noted are these: 1 nM; incubation time: 72 h. How it is done: as §2
A further experiment deals with HDQ-P1. The experiment is described as above. The conditions noted are these: 1 nM; incubation time: 72 h. As to the method: as §2
The test system of experiment [17] is HCC1599. The description is as above. The conditions noted are these: 1 nM; incubation time: 72 h. As to the method: as §2
The test system of experiment [18] is Hs578T. Described as above. Particulars: 1 nM; incubation time: 72 h. How it is done: as §2
Experiment [19] relates to HCC1143. The description is as above. The conditions noted are these: 1 nM; incubation time: 72 h. As to the method:
as §2

In experiment [20] the test system is MFM-223. The experiment is described as above. The conditions noted are these: 1 nM; incubation time: 72 h. As to the method:
as §2

Structures are written as SMILES.

For `CN(C)CCN1C(=O)c2cccc3cc(N)cc(c23)C1=O` [Amonafide], the drug sensitivity score in the experiment on MDA-MB-231 was found to be 3.06; in the experiment with BT-474 [1], 5.06; with DU-4475 [2], 5.38; in the experiment with MDA-MB-436 [3], 2.32; with BT-549 [4] it was 2.93; with MDA-MB-468 it was 2.59. Besides, the drug sensitivity score in the experiment on CAL-85-1 [5] was found to be 2.16; in the experiment on MCF-10A, 2.36; in the experiment with HCC1937 [6], 2.35; in the experiment with CAL-148, 4.44; in the experiment on CAL-120 it was 3.03; with HCC1599 [7], 0.856. In addition, the drug sensitivity score in the experiment on Hs578T [8] is 2.97; with HCC1143 [9], 1.61; in the experiment with MFM-223 [10], 0.47. For the same compound, the normalised viability with BT-474 [11] stood at 103%; with DU-4475 [12] it was 99.6%; in the experiment with MDA-MB-436 [13], 102%; in the experiment on CAL-51, 107%; in the experiment with BT-549 [14], 94.4%; in the experiment with CAL-85-1 [15], 90%. Also, the normalised viability is 108% with HCC1937 [16]; 105% in the experiment on HDQ-P1; 88.2% with HCC1599 [17]; 121% in the experiment with Hs578T [18]; 83.7% in the experiment with HCC1143 [19]; 93% in the experiment on MFM-223 [20].
Turning to `CC(C)(C#N)c1cc(Cn2cncn2)cc(C(C)(C)C#N)c1` [Anastrozole], the drug sensitivity score with MDA-MB-231, with BT-474 [1], in the experiment on DU-4475 [2], with MDA-MB-436 [3], in the experiment on BT-549 [4] and with MDA-MB-468 was 0 each time. Further, the drug sensitivity score in the experiment on CAL-85-1 [5], with MCF-10A, in the experiment on HCC1937 [6], in the experiment with CAL-148, in the experiment on CAL-120 and in the experiment with HCC1599 [7] was 0 in each case. For the same compound, the drug sensitivity score in the experiment on Hs578T [8], with HCC1143 [9] and in the experiment on MFM-223 [10] was 0 each time. The normalised viability in the experiment on BT-474 [11] came to 73.5%; in the experiment with DU-4475 [12] it was 94%; in the experiment with MDA-MB-436 [13], 99%; in the experiment with CAL-51, 108%; with BT-549 [14], 122%; in the experiment with CAL-85-1 [15], 94.1%. Also, the normalised viability worked out at 94.6% in the experiment with HCC1937 [16]; 101% in the experiment with HDQ-P1; 107% with HCC1599 [17]; 97.2% in the experiment with Hs578T [18]; 83.4% in the experiment with HCC1143 [19]; 98.8% in the experiment on MFM-223 [20].
As to `CC(C)c1c(C(=O)Nc2ccccc2)c(-c2ccccc2)c(-c2ccc(F)cc2)n1CC[C@@H](O)C[C@@H](O)CC(=O)O` [Atorvastatin], the drug sensitivity score in the experiment with MDA-MB-231 was 10.1; in the experiment on BT-474 [1] it was 8.43; in the experiment on DU-4475 [2] it was 0; with MDA-MB-436 [3] it was 0; with BT-549 [4], 0; with MDA-MB-468, 4.08. The drug sensitivity score came to 3.85 with CAL-85-1 [5]; 7.2 in the experiment with MCF-10A; 1 with HCC1937 [6]; 0 with CAL-148; 4.42 in the experiment with CAL-120; 0 in the experiment on HCC1599 [7]. For the same compound, the figures for the drug sensitivity score with Hs578T [8], in the experiment with HCC1143 [9] and in the experiment with MFM-223 [10] were 1.59, 1.92 and 0, respectively.
On to `O=C(O)CCCc1ccc(N(CCCl)CCCl)cc1` [Chlorambucil], for which the drug sensitivity score in the experiment with MDA-MB-231, in the experiment with BT-474 [1], in the experiment on DU-4475 [2], with MDA-MB-436 [3], in the experiment with BT-549 [4] and with MDA-MB-468 was 0 each time. Besides, the drug sensitivity score in the experiment on CAL-85-1 [5], with MCF-10A, in the experiment with HCC1937 [6], in the experiment on CAL-148, in the experiment on CAL-120 and with HCC1599 [7] was 0 throughout. Also, the drug sensitivity score in the experiment on Hs578T [8], in the experiment with HCC1143 [9] and in the experiment with MFM-223 [10] was 0 in each case. Besides, the normalised viability in the experiment on BT-474 [11] came to 89.7%; with DU-4475 [12], 102%; in the experiment on MDA-MB-436 [13], 105%; in the experiment with CAL-51, 111%; in the experiment with BT-549 [14], 96.7%; with CAL-85-1 [15] it was 97.4%. Also, the normalised viability in the experiment on HCC1937 [16] came out at 97.6%; in the experiment on HDQ-P1, 111%; in the experiment with HCC1599 [17], 117%; in the experiment on Hs578T [18], 99.4%; in the experiment on HCC1143 [19], 105%; with MFM-223 [20], 94.3%.

For the origin of these results see the supplement of paper PMC4862054.
